Assay results from patent publication US20110098298A1, “New Pyridin-3-Amine Derivatives” (priority 2006, published 2011).

How the values were obtained:
[1] = biological target: T1, human p38alfa (SAPKa) enzyme (Homo sapiens, UniProt Q16539); experiment: p38alpha enzymatic inhibition assay (FRET, ATF2 substrate); assay type: biochemical; conditions: 1 h pre-incubation, ATP 60 μM, ATF2 0.62 μM, 25° C., read-out: p38α IC50
T1 construct: purchased University of Dundee
Experimental: Enzymatic activity assay was performed in 96-well microtiter plates (Corning, catalog number # 3686) using a total volume of 50 μl of an assay buffer composed of 50 mM HEPES pH 7.5, 10 mM MgCl2, 1.75 mM Na3VO4.
Various concentrations of the test compound or vehicle controls were pre-incubated for one hour with 0.055 μg/ml of the human p38alfa (SAPKa) enzyme (obtained from University of Dundee). […] Addition of the detection reagents, streptavidin-XL665 and anti-phosphoresidue antibody coupled to Europium cryptate, caused the juxtaposition of the cryptate and the XL665 fluorophore, resulting in fluorescence energy transfer (FRET). The FRET intensity depends on the amount of bounded cryptate antibody, which is proportional to the extent of substrate phosphorylation. FRET intensity was measured using Victor 2V spectrofluorometer. Data were analyzed by non-linear regression (Hill equation) to generate a dose-response curve. The calculated IC50 value is the concentration of the test compound that caused a 50% decrease in the maximal FRET intensity.

[2] = test system: TNFα production in human monocytic cell line THP-1; experiment: Inhibition of LPS-induced TNFα production in THP-1 cells; assay type: cell-based; conditions: LPS 10 μg/ml, 5 h, TNFα ELISA
Experimental: The activity of compounds in inhibiting TNFα production was measured in a cellular assay using the human monocytic cell line THP-1. For this purpose, 2×10^5 cells/well were plated in tissue-culture treated round-bottom 96-well plates in RPMI (containing 10% FCS, L-Gln 2 mM, Hepes buffer 10 mM, sodium pyruvate 1 mM, glucose 4.5 gr/L, HNaCO3 1.5 g/L and beta-mercaptoethanol 50 μM), together with compounds at the desired test concentration and LPS (Sigma, L2630) at a final 10 μg/ml concentration. Compounds were resuspended in 100% DMSO at a concentration of 1 mM and titrated thereof in 10× dilutions in medium. Controls included stimulated cells alone and stimulated cells treated with the highest concentration of compound vehicle (1% DMSO). Cells were incubated for 5 h at 37° C. in a 5% CO2 atmosphere. Cell supernatant was recovered by centrifugation and diluted 5-fold prior to testing in a standard human TNFα ELISA (RnD systems).
Data were analyzed by non-linear regression (Hill equation) to generate a dose-response curve. The calculated IC50 value is the concentration of the test compound that caused a 50% decrease in the maximal TNFα production.

T1 sequence (Q16539 whole entry): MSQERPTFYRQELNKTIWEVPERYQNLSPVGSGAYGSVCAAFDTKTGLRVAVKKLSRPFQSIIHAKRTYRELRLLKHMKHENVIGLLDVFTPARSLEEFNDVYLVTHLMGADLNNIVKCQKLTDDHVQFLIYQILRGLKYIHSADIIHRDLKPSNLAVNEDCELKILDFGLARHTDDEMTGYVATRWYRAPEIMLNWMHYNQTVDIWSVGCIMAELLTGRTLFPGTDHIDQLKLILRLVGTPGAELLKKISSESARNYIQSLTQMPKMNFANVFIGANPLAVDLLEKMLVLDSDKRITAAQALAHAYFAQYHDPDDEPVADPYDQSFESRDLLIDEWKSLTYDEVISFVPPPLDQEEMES

SMILES	IC50 [1] [nM]	IC50 [2] [nM]
Cc1cc(O)ccc1-c1c(N)c(C(=O)c2ccc(F)cc2F)cc[n+]1[O-] [Example 48, [3-Amino-2-(4-hydroxy-2-methylphenyl)-1-oxidopyridin-4-yl](2,4-difluorophenyl)methanone]		84
Cc1ccccc1-c1c(N)c(C(=O)c2ccccc2Cl)cc[n+]1[O-] [Example 82, [3-Amino-2-(2-methylphenyl)-1-oxidopyridin-4-yl](2-chlorophenyl)methanone]	31	118
Cc1cccc(C(=O)c2cc[n+]([O-])c(-c3ccccc3C)c2N)c1 [Example 92, [3-Amino-2-(2-methylphenyl)-1-oxidopyridin-4-yl](3-methylphenyl)methanone]	34	54
Cc1cccc(C(=O)c2cc[n+]([O-])c(-c3c(F)cccc3F)c2N)c1 [Example 98, [3-Amino-2-(2,6-difluorophenyl)-1-oxidopyridin-4-yl](3-methylphenyl)methanone]	20	48
COc1ccccc1C(=O)c1cc[n+]([O-])c(-c2c(F)cccc2F)c1N [Example 118, [3-Amino-2-(2,6-difluorophenyl)-1-oxidopyridin-4-yl](2-methoxyphenyl)methanone]	86	140
COc1ccccc1C(=O)c1cc[n+]([O-])c(-c2c(C)cccc2C)c1N [Example 120, [3-Amino-2-(2,6-dimethylphenyl)-1-oxidopyridin-4-yl](2-methoxyphenyl)metha-none]	146	98

Second part, the molecule after the results:

IC50 [1] [nM]	IC50 [2] [nM]	SMILES
251	130	Nc1c(C(=O)c2ccc(F)cc2F)ccnc1-c1ccccc1Cl [Example 25, [3-Amino-2-(2-chlorophenyl)pyridin-4-yl](2,4-difluorophenyl)methanone]
	76	Nc1c(C(=O)c2ccc(F)cc2F)cc[n+]([O-])c1-c1ccccc1Cl [Example 26, [3-Amino-2-(2-chlorophenyl)-1-oxidopyridin-4-yl](2,4-difluorophenyl)methanone]
	19.4	Nc1c(C(=O)c2ccc(F)cc2F)cc[n+]([O-])c1-c1c(Cl)cccc1Cl [Example 32, [3-Amino-2-(2,6-dichlorophenyl)-1-oxidopyridin-4-yl](2,4-difluorophenyl)methanone]
	33	Cc1cccc(C)c1-c1c(N)c(C(=O)c2ccc(F)cc2F)cc[n+]1[O-] [Example 36, [3-Amino-2-(2,6-dimethylphenyl)-1-oxidopyridin-4-yl](2,4-difluorophenyl)methanone]
277	402	Cc1cc(O)ccc1-c1nccc(C(=O)c2ccc(F)cc2F)c1N [Example 47, [3-Amino-2-(4-hydroxy-2-methylphenyl)pyridin-4-yl](2,4-difluorophenyl)methanone]
103	53	Nc1c(C(=O)c2ccc(F)cc2F)ccnc1-c1cccc2c1OCO2 [Example 79, [3-Amino-2-(1,3-benzodioxol-4-yl)pyridin-4-yl](2,4-difluorophenyl)methanone]
359	349	Nc1c(C(=O)c2cccc(F)c2)ccnc1-c1cccc2c1OCO2 [Example 109, [3-Amino-2-(1,3-benzodioxol-4-yl)pyridin-4-yl](3-fluorophenyl)methanone]
